Among the test systems are EKVX NSCLC; LOX IMVI melanoma; MALME-3M melanoma; MCF7 breast; NCI/ADR-RES ovarian; OVCAR-8 ovarian; SF-539 CNS; SK-MEL-5 melanoma; SNB-19 CNS; SNB-75 CNS.
What all share (experiment): DTP human tumour cell line panel, 48 h

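Tested at 5 concentrations; 48 h exposure; 96-well plates; endpoints linearly interpolated, else capped at highest concentration. At the TGI there is no net growth.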

The term TGI denotes the concentration at which net growth stops. High values mean less potent growth arrest, low ones more potent growth arrest. As for `CCCCCCCCP(=O)(O)OP(=O)(O)OCC1OC(n2ccc(N)nc2=O)C(O)C1O` (stereo not given), the concentration for total growth inhibition (TGI) in the assay on EKVX NSCLC, in the assay on LOX IMVI melanoma, in the assay with MALME-3M melanoma, in the assay with MCF7 breast, with NCI/ADR-RES ovarian and in the assay with OVCAR-8 ovarian was greater than 100 µM throughout. The TGI in the assay on SF-539 CNS, with SK-MEL-5 melanoma, in the assay with SNB-19 CNS and in the assay on SNB-75 CNS was greater than 100 µM in each case.
In the case of `CN(CCCNC(=O)c1nn(C)c2c1Cc1ccccc1-2)CCCNC(=O)c1nn(C)c2c1Cc1ccccc1-2`, the concentration for total growth inhibition (TGI) was 39.2 µM with EKVX NSCLC; 21.1 µM in the assay with LOX IMVI melanoma; 37.2 µM in the assay on MALME-3M melanoma; 31.2 µM with MCF7 breast; greater than 68.9 µM with NCI/ADR-RES ovarian; 46 µM with OVCAR-8 ovarian. The TGI with SF-539 CNS came to 33.9 µM; in the assay with SK-MEL-5 melanoma it was 29.8 µM; in the assay on SNB-19 CNS it was 26.4 µM; with SNB-75 CNS it was 31.5 µM.
On to `COC(=O)C(Cc1c[nH]c2ccccc12)NP(=O)(O)OCC1OC(n2cc(Br)c(=O)[nH]c2=O)CC1O` (stereo not given), for which the total growth inhibition concentration (TGI) with EKVX NSCLC, in the assay on LOX IMVI melanoma, in the assay on MALME-3M melanoma, in the assay with MCF7 breast, in the assay on NCI/ADR-RES ovarian and with OVCAR-8 ovarian was greater than 100 µM each time. In addition, the TGI in the assay on SF-539 CNS, with SK-MEL-5 melanoma, with SNB-19 CNS and in the assay with SNB-75 CNS was greater than 100 µM in each case.
On to `COC(=O)[C@]1(c2cc3ccccc3[nH]2)CC2CN(C(=O)OCc3ccccc3)C1CC2=O` (stereo not given in full), for which the TGI was 43.7 µM in the assay on EKVX NSCLC; 66.6 µM in the assay with LOX IMVI melanoma; 56.4 µM in the assay on MALME-3M melanoma; 35.5 µM with MCF7 breast; greater than 100 µM in the assay with NCI/ADR-RES ovarian; greater than 100 µM in the assay on OVCAR-8 ovarian. The total growth inhibition concentration (TGI) was greater than 100 µM in the assay on SF-539 CNS, 34.5 µM in the assay with SK-MEL-5 melanoma, greater than 100 µM in the assay with SNB-19 CNS and 64.6 µM with SNB-75 CNS.
Consider `CN(C)CCOc1ccc(-c2c(Oc3ccccc3)c(=O)oc3ccccc23)cc1`, for which the total growth inhibition concentration (TGI) in the assay with EKVX NSCLC stood at 27.5 µM; in the assay on LOX IMVI melanoma it was 25.9 µM; in the assay on MALME-3M melanoma, 25.8 µM; in the assay with MCF7 breast, 17.5 µM; with NCI/ADR-RES ovarian it was 25 µM; in the assay with OVCAR-8 ovarian, 29.6 µM. Further, the total growth inhibition concentration (TGI) was 27.9 µM in the assay on SF-539 CNS, 13.1 µM with SK-MEL-5 melanoma, 20.8 µM in the assay on SNB-19 CNS and 23.6 µM with SNB-75 CNS.
For the molecule `O[C@@H]1CCC[C@@H]2NC[C@@H](c3ccc4c(c3)OCO4)[C@H]12`, the TGI in the assay with EKVX NSCLC, in the assay on LOX IMVI melanoma, in the assay on MALME-3M melanoma, with MCF7 breast, in the assay on NCI/ADR-RES ovarian and in the assay with OVCAR-8 ovarian was greater than 100 µM throughout. Further, the TGI in the assay on SF-539 CNS, with SK-MEL-5 melanoma, in the assay with SNB-19 CNS and in the assay with SNB-75 CNS was greater than 100 µM in each case.
For `CCCCc1ccc(Nc2nc(Cl)c3c(ncn3C3CC(Oc4ccc(C)cc4)C(COc4ccc(C)cc4)O3)n2)cc1` (stereo not given), the TGI with EKVX NSCLC, with LOX IMVI melanoma, in the assay on MALME-3M melanoma, with MCF7 breast, in the assay with NCI/ADR-RES ovarian and with OVCAR-8 ovarian was greater than 100 µM throughout. Also, the concentration for total growth inhibition (TGI) is greater than 100 µM in the assay on SF-539 CNS, greater than 100 µM in the assay on SK-MEL-5 melanoma, greater than 100 µM with SNB-19 CNS and 99.2 µM with SNB-75 CNS.
As to `C=CC(=O)N1C/C(=C\c2ccc([N+](=O)[O-])cc2)C(=O)/C(=C/c2ccc([N+](=O)[O-])cc2)C1`, the TGI in the assay on EKVX NSCLC turned out to be 0.829 µM; in the assay with LOX IMVI melanoma, 0.18 µM; in the assay with MALME-3M melanoma, 0.643 µM; in the assay with MCF7 breast, 1.21 µM; in the assay on NCI/ADR-RES ovarian it was 4.12 µM; in the assay with OVCAR-8 ovarian it was 0.727 µM. Moreover, the concentration for total growth inhibition (TGI) was found to be 0.151 µM in the assay on SF-539 CNS, 2.54 µM in the assay with SK-MEL-5 melanoma, 3.08 µM in the assay on SNB-19 CNS and 1.16 µM with SNB-75 CNS.
As to `COC1=C(C)C(=O)C2=C(C1=O)C1C3CC4=C(C(=O)C(OC)=C(C)C4=O)C(CNC(=O)C(C)O)N3C(C#N)C(C2)N1C` (stereo not given), the total growth inhibition concentration (TGI) is 0.108 µM in the assay on EKVX NSCLC; 0.0263 µM in the assay with LOX IMVI melanoma; less than 0.0139 µM in the assay on MALME-3M melanoma; 2.25 µM in the assay on MCF7 breast; 8.72 µM with NCI/ADR-RES ovarian; 1.32 µM in the assay on OVCAR-8 ovarian. In addition, the total growth inhibition concentration (TGI) is less than 0.0117 µM with SF-539 CNS, less than 0.01 µM in the assay with SK-MEL-5 melanoma, 1.92 µM in the assay on SNB-19 CNS and 0.0171 µM with SNB-75 CNS.
As to `O=[N+]([O-])c1cc2ccc(N(CCO)CCO)nc2nc1N(CCO)CCO`, the total growth inhibition concentration (TGI) in the assay on EKVX NSCLC, in the assay on LOX IMVI melanoma, in the assay with MALME-3M melanoma, in the assay on MCF7 breast, in the assay with NCI/ADR-RES ovarian and in the assay on OVCAR-8 ovarian was greater than 100 µM in each case. In addition, the TGI in the assay with SF-539 CNS, in the assay on SK-MEL-5 melanoma, with SNB-19 CNS and in the assay with SNB-75 CNS was greater than 100 µM each time.
Consider `O=C(O)c1c2c(cc3c1CC1(Cc4cc5c(cc4C1=O)CCC5)C3)CCC2` (stereo not given), for which the total growth inhibition concentration (TGI) with EKVX NSCLC, in the assay with LOX IMVI melanoma, in the assay with MALME-3M melanoma, in the assay with MCF7 breast, in the assay with NCI/ADR-RES ovarian and in the assay on OVCAR-8 ovarian was greater than 100 µM in each case. The total growth inhibition concentration (TGI) with SF-539 CNS, with SK-MEL-5 melanoma, in the assay with SNB-19 CNS and in the assay on SNB-75 CNS was greater than 100 µM throughout.
For the molecule `Cc1c(C)c(C)c(-n2c(=O)n(C)c(=O)n2-c2cc(C(C)(C)C)cc(C(C)(C)C)c2O)c(C)c1C`, the TGI in the assay on EKVX NSCLC came out at 22.8 µM; in the assay on LOX IMVI melanoma it was 26.8 µM; with MALME-3M melanoma, 24.9 µM; in the assay with MCF7 breast it was 16.6 µM; in the assay with NCI/ADR-RES ovarian it was 23.4 µM; in the assay on OVCAR-8 ovarian, 22.7 µM. Moreover, the TGI with SF-539 CNS came to 24.3 µM; with SK-MEL-5 melanoma, 18.5 µM; in the assay with SNB-19 CNS, 20.9 µM; in the assay on SNB-75 CNS, 16.9 µM.
